Measured values reported in PMC3933250 (Annals of Oncology, 2014).

What was measured:
R/M-SCCHN patients = conditions: ≤2000 mg cilengitide plus PFE, phase I part; cited from earlier work
[1] = Cilengitide pharmacokinetic profile in plasma during cycle 1; format: in vivo, human; conditions: PFE + CIL1W and PFE + CIL2W groups

SMILES: CC(C)[C@H]1C(=O)N[C@@H](CCCN=C(N)N)C(=O)NCC(=O)N[C@@H](CC(=O)O)C(=O)N[C@H](Cc2ccccc2)C(=O)N1C [cilengitide, Cilengitide]
- Dose-limiting or unexpected toxicities (R/M-SCCHN patients): no dose-limiting or unexpected toxicities
- Influence of the different cilengitide dosing on cetuximab exposure [1]: no clinically relevant influence
